From patent US20230271950A1, “ANTIBACTERIAL PICOLINAMIDE COMPOUNDS” (University of Notre Dame Du Lac, priority 2020, published 2023)
In brackets after ≈: the same amount, converted by molar mass. Where two headings read alike, the source gives them in different places.

Experiments:
[1] = test system: C. difficile; experiment: MIC by broth microdilution against C. difficile strains; assay type: cell-based, Clostridioides difficile; settings: Clostridioides difficile; for MIC: Table 9, read-out: MIC
[2] = test system: MRSA (NRS70, NRS119); experiment: MIC against MRSA strains; assay type: cell-based, Staphylococcus aureus; settings: Staphylococcus aureus, read-out: MIC
[3] = test system: S. aureus ATCC29213; experiment: MIC against MSSA; assay type: cell-based, Staphylococcus aureus; settings: Staphylococcus aureus; S. aureus ATCC29213; Table 1; read-out: MIC
[4] = test system: E. faecium NCTC7171; experiment: MIC against E. faecium; assay type: cell-based, Enterococcus faecium; settings: Enterococcus faecium; E. faecium NCTC7171; Table 1; read-out: MIC
[5] = test system: Bacteroides fragilis; experiment: MIC against gut bacterium Bacteroides fragilis; assay type: cell-based; settings: Bacteroides fragilis, Bacteroides fragilis strain HM-709, read-out: MIC
[6] = test system: Bifidobacterium longum; experiment: MIC against gut bacterium Bifidobacterium longum; assay type: cell-based; settings: Bifidobacterium longum, Bifidobacterium longum strain HM-846, read-out: MIC
[7] = test system: Corynebacterium spp.; experiment: MIC against gut bacterium Corynebacterium spp.; assay type: cell-based; settings: Corynebacterium, Corynebacterium spp. strain HM-784
[8] = test system: Fusobacterium nucleatum; experiment: MIC against gut bacterium Fusobacterium nucleatum; assay type: cell-based; settings: Fusobacterium nucleatum, Fusobacterium nucleatum strain HM-992, read-out: MIC
[9] = test system: Lactobacillus reuteri; experiment: MIC against gut bacterium Lactobacillus reuteri; assay type: cell-based
[10] = test system: Lactobacillus gasseri; experiment: MIC against gut bacterium Lactobacillus gasseri; assay type: cell-based
[11] = test system: Veillonella sp. HM-49; experiment: MIC against gut bacterium Veillonella sp.; assay type: cell-based
[12] = test system: Eubacterium sp.; experiment: MIC against gut bacterium Eubacterium sp.; assay type: cell-based; settings: Eubacterium, Eubacterium sp. strain HM-178, read-out: MIC

Cc1ncc([N+](=O)[O-])n1CCO [MTZ, metronidazole, reference compound]
MIC ([1]; C. difficile NR-32903): 0.5 µg/mL (≈ 2.92 µM) | MIC ([1]; C. difficile NR-32904): 0.5 µg/mL (≈ 2.92 µM) | MIC ([1]; C. difficile NR-49277): 0.5 µg/mL (≈ 2.92 µM) | MIC ([1]; C. difficile NR-49278): 0.5 µg/mL (≈ 2.92 µM) | MIC ([1]; C. difficile NR-49279): 1 µg/mL (≈ 5.84 µM) | MIC ([1]; C. difficile NR-49280): 1 µg/mL (≈ 5.84 µM) | MIC ([1]; C. difficile NR-49281): 1 µg/mL (≈ 5.84 µM) | MIC ([1]; C. difficile NR-49282): 0.5 µg/mL (≈ 2.92 µM) | MIC ([1]; C. difficile NR-49283): 0.5 µg/mL (≈ 2.92 µM) | MIC ([1]; C. difficile NR-49284): 0.5 µg/mL (≈ 2.92 µM) | MIC ([1]; C. difficile NR-49285): 0.5 µg/mL (≈ 2.92 µM) | MIC ([1]; C. difficile NR-49286): 1 µg/mL (≈ 5.84 µM) | MIC ([1]; C. difficile NR-49287): 0.5 µg/mL (≈ 2.92 µM) | MIC ([1]; C. difficile NR-49288): 0.5 µg/mL (≈ 2.92 µM) | MIC ([1]; C. difficile NR-49289): 0.5 µg/mL (≈ 2.92 µM) | MIC ([1]; C. difficile NR-49290): 1 µg/mL (≈ 5.84 µM) | MIC ([1]; C. difficile NR-49291): 1 µg/mL (≈ 5.84 µM) | MIC ([1]; C. difficile NR-49293): 0.5 µg/mL (≈ 2.92 µM) | MIC ([1]; C. difficile NR-49295): 0.5 µg/mL (≈ 2.92 µM) | MIC ([1]; C. difficile NR-49296): 0.5 µg/mL (≈ 2.92 µM) | MIC ([1]; C. difficile NR-49297): 0.5 µg/mL (≈ 2.92 µM) | MIC ([1]; C. difficile NR-49298): 1 µg/mL (≈ 5.84 µM) | MIC ([1]; C. difficile NR-49299): 0.5 µg/mL (≈ 2.92 µM) | MIC ([1]; C. difficile NR-49300): 0.5 µg/mL (≈ 2.92 µM) | MIC ([1]; C. difficile NR-49301): 0.5 µg/mL (≈ 2.92 µM) | MIC ([1]; C. difficile NR-49303): 0.5 µg/mL (≈ 2.92 µM) | MIC ([1]; C. difficile NR-49304): 0.5 µg/mL (≈ 2.92 µM) | MIC ([1]; C. difficile NR-49306): 0.5 µg/mL (≈ 2.92 µM) | MIC ([1]; C. difficile NR-49307): 0.5 µg/mL (≈ 2.92 µM) | MIC ([1]; C. difficile NR-49308): 0.5 µg/mL (≈ 2.92 µM) | MIC ([1]; C. difficile NR-49309): 0.25 µg/mL (≈ 1.46 µM) | MIC ([1]; C. difficile NR-49311): 0.5 µg/mL (≈ 2.92 µM) | MIC ([1]; C. difficile NR-49312): 0.5 µg/mL (≈ 2.92 µM) | MIC ([1]; C. difficile NR-49313): 0.5 µg/mL (≈ 2.92 µM) | MIC ([1]; C. difficile NR-49314): 0.5 µg/mL (≈ 2.92 µM) | MIC ([1]; C. difficile NR-49315): 0.5 µg/mL (≈ 2.92 µM) | MIC ([1]; C. difficile NR-49316): 0.5 µg/mL (≈ 2.92 µM) | MIC ([1]; C. difficile NR-49317): 0.5 µg/mL (≈ 2.92 µM) | MIC ([1]; C. difficile NR-49319): 0.5 µg/mL (≈ 2.92 µM) | MIC ([1]; C. difficile NR-49320): 0.5 µg/mL (≈ 2.92 µM) | MIC ([1]; C. difficile NR-49321): 0.5 µg/mL (≈ 2.92 µM) | MIC ([1]; C. difficile NR-49323): 0.25 µg/mL (≈ 1.46 µM) | MIC ([1]; C. difficile NR-49324): 0.25 µg/mL (≈ 1.46 µM) | MIC ([1]; C. difficile NR-49325): 0.5 µg/mL (≈ 2.92 µM) | MIC ([1]; C. difficile NR-49326): 0.5 µg/mL (≈ 2.92 µM) | MIC ([1]; C. difficile NR-49327): 0.5 µg/mL (≈ 2.92 µM) | MIC ([1]; C. difficile NR-49328): 0.25 µg/mL (≈ 1.46 µM) | MIC ([1]; C. difficile NR-49329): 0.25 µg/mL (≈ 1.46 µM) | MIC50 ([1]; 101 C. difficile strains): 0.5 µg/mL (≈ 2.92 µM) | MIC90 ([1]; 101 C. difficile strains, read-out: MIC90 (101 strains)): 1 µg/mL (≈ 5.84 µM) | MIC ([2]; MRSA NRS70, Table 1): > 128 µg/mL | MIC ([2]; MRSA NRS70, Table 7): > 128 µg/mL | MIC ([2]; MRSA NRS119, Table 1): > 128 µg/mL | MIC [3]: > 128 µg/mL | MIC [4]: > 128 µg/mL | MIC ([5]; Table 1): 0.5 µg/mL (≈ 2.92 µM) | MIC ([5]; Table 7): 1 µg/mL (≈ 5.84 µM) | MIC ([6]; Table 1): 0.5 µg/mL (≈ 2.92 µM) | MIC ([6]; Table 7): 1 µg/mL (≈ 5.84 µM) | MIC ([7]; Table 1): > 32 µg/mL | MIC ([7]; Table 7): > 32 µg/mL | MIC ([8]; Table 1): 2 µg/mL (≈ 11.7 µM) | MIC ([8]; Table 7): 2 µg/mL (≈ 11.7 µM) | MIC ([9]; Lactobacillus reuteri strain HM-102, Table 7): >32 µg/mL | MIC ([9]; Limosilactobacillus reuteri, Lactobacillus reuter strain HM-102, Table 1, read-out: MIC): > 32 µg/mL | MIC ([10]; Lactobacillus gasseri strain HM-644, Table 7): >32 µg/mL | MIC ([10]; Lactobacillus gasseri, Lactobacillus gasser strain HM-644, Table 1, read-out: MIC): > 32 µg/mL | MIC ([11]; SP.HM49, Veillonella sp. HM-49, Table 1, read-out: MIC): 2 µg/mL (≈ 11.7 µM) | MIC ([11]; Veillonella sp. strain HM-49, Table 7): 2 µg/mL (≈ 11.7 µM) | MIC ([12]; Table 1): 1 µg/mL (≈ 5.84 µM) | MIC ([12]; Table 7): 1 µg/mL (≈ 5.84 µM)
